The nature of experiment [1]: Suppressing effect on the nitration of tyrosine with peroxynitrite. The experiment is classed as biochemical. The following applies: in comparison with pyridoxamine as positive control; 0.1, 0.5, 2.5 and 5 mM. The protocol:
According to the method of Pannala, A.S. et al. (Free Radic. Biol. Med., 24:594-606, 1998), the examination was carried out. Namely, tyrosine (final concentration: 100 μM), the test compound (final concentration: 0.1, 0.5, 2.5 and 5 mM) and peroxynitrite (Dojin Kagaku) (final concentration: 500 μM) were dissolved in 200 mM of phosphate buffer (pH7.4) (liquid volume 500 μL) and incubated at 37° C. for 15 minutes. After incubation, the nitrotyrosine formation was determined with HPLC in the following manner: after a predifined time, the reaction mixture (20 μL) was injected onto HPLC, separation was made with C18 column (4.6×250 mm, 5 μm: Waters) and the detection was effected using a ultraviolet detector (RF-10A: Shimazu Seisakusho) at a wavelength of 280 nm. In the mobile phase, the flow rate was 0.6 mL/min and the concentration of buffer B was varied from 5.0% to 30% in 30 minutes (buffer A: 0.10% trifluoroacetic acid; buffer B: 80% acetonitrile containing 0.08% trifluoroacetic acid). 4-Hydroxy-3-nitrobenzoic acid (100 μM) was used as the internal standard.

Experiment [2] concerns glomerulonephritis model with mesangial proliferative nephritis. The experiment in a line: Effect against glomerulonephritis (anti Thy-1 antibody model). The following applies: 1 mg/kg once a day, 5 days. The experiment is classed as in vivo, rat. The protocol:
1.2 mg/kg of OX-7, anti Thy-1 antibody, was administered to wistar rat (male, body weight 150 g, 6 weeks old) in tail vein to prepare typical glomerulonephritis model with mesangial proliferative nephritis. After the administration of anti Thy-1 antibody, test compound (4-(5-phenyltetrazol-1-ylmethyl)-morpholine (compound 1), 1 mg/kg body weight, once a day) was suspended in 0.5% carboxymethylcellulose, was coercively administered for 5 days continuously, on sixth day sampled, kidney was obtained, and analysed pathologically (count the number of glomerular cells). In particular, cells were stained by PAS according to conventional method, the stained image was captured by 3CCD camera (Olympus), and then analyzed using softwares, Image Graver PCI (FUJI shashin film) and Mac Aspect (Mitani kabushiki kaisha). Also, biochemical analysis of blood and urine was carried out (contract clinical analysis organization: SR L).

Take `c1ccc(-c2nnnn2CN2CCOCC2)cc1` [Compound 1, 4-(5-phenyltetrazol-1-ylmethyl)-morpholine]: the “nitrotyrosine formation, suppression” value in experiment [1] was “suppressed remarkably”. Further, in experiment [2], the BUN entry is reported as “BUN reducing effect” and the urinary protein entry is on record as “urinary protein reducing effect”.
